Test results reported in patent US12344600B2, “c-Myc mRNA translation modulators and uses thereof in the treatment of cancer” (Anima Biotech Inc., priority 2022, dated 2025).

System: c-Myc
Assay: c-Myc immunofluorescence assay
Type: cell-based, human
Settings: A549 cells, 24 hours, anti-c-Myc immunofluorescence
Outline: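 Read-out is imaged c-Myc immunofluorescence, nucleus-segmented, in A549 lung carcinoma cells exposed to compound dose series for 24 h after 48 h growth. Fixation 4% paraformaldehyde, Triton permeabilization, antibody staining at room temperature; EC50 from logistic fit of signal versus concentration.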

Compound	Myc Efficacy (−LogEC50)
COc1ccc(-c2noc(N3CCC(C(=O)NCC4CCN(Cc5cncs5)C4)CC3)n2)cc1 (centres unmarked) [Compound 341, 1-(3-(4-methoxyphenyl)-1,2,4-oxadiazol-5-yl)-N-((1-(thiazol-5-ylmethyl)pyrrolidin-3-yl)methyl)piperidine-4-carboxamide]	+ (+ >3 and <5)
COc1ccc(-c2noc(N3CCC(C(=O)NCC4CCN(Cc5ccccc5)C4)CC3)n2)cc1 (centres unmarked) [Compound 342, N-((1-benzylpyrrolidin-3-yl)methyl)-1-(3-(4-methoxyphenyl)-1,2,4-oxadiazol-5-yl)piperidine-4-carboxamide]	++ (++ ≥5 and <6)
COc1ccc(-c2noc(N3CCC(C(=O)NCC4CCN(CC(F)(F)F)C4)CC3)n2)cc1 (centres unmarked) [Compound 343, 1-(3-(4-methoxyphenyl)-1,2,4-oxadiazol-5-yl)-N-((1-(2,2,2-trifluoroethyl)pyrrolidin-3-yl)methyl)piperidine-4-carboxamide]	+ (+ >3 and <5)
C#CCCC1(CCOc2cc(-c3noc(N4CCC(C(=O)NCC5CCN(Cc6ccc(C)cc6)C5)CC4)n3)ccc2OC)N=N1 (centres unmarked) [Compound 344, 1-(3-(3-(2-(3-(but-3-yn-1-yl)-3H-diazirin-3-yl)ethoxy)-4-methoxyphenyl)-1,2,4-oxadiazol-5-yl)-N-((1-(4-methylbenzyl)pyrrolidin-3-yl)methyl)piperidine-4-carboxamide]	++ (++ ≥5 and <6)
COc1ccc(-c2noc(N3CCN(C(=O)NCC4CCN(c5ccccc5)C4)CC3)n2)cc1 (centres unmarked) [Compound 345, 4-(3-(4-methoxyphenyl)-1,2,4-oxadiazol-5-yl)-N-((1-phenylpyrrolidin-3-yl)methyl)piperazine-1-carboxamide]	+ (+ >3 and <5)
COc1ccc(-c2noc(N3CCC(C(=O)NC4CCN(c5ccccc5)C4)CC3)n2)cc1 (centres unmarked) [Compound 346, 1-(3-(4-methoxyphenyl)-1,2,4-oxadiazol-5-yl)-N-(1-phenylpyrrolidin-3-yl)piperidine-4-carboxamide]	++ (++ ≥5 and <6)
COc1ccc(-c2noc(N3CCC(C(=O)NCC4CCN(CC5CCOC5)C4)CC3)n2)cc1 (centres unmarked) [Compound 347, 1-(3-(4-methoxyphenyl)-1,2,4-oxadiazol-5-yl)-N-((1-((tetrahydrofuran-3-yl)methyl)pyrrolidin-3-yl)methyl)piperidine-4-carboxamide]	+ (+ >3 and <5)
COc1ccc(-c2noc(N3CCC(C(=O)NCC4CCN(Cc5ccncc5C)C4)CC3)n2)cc1 (centres unmarked) [Compound 348, 1-(3-(4-methoxyphenyl)-1,2,4-oxadiazol-5-yl)-N-((1-((3-methylpyridin-4-yl)methyl)pyrrolidin-3-yl)methyl)piperidine-4-carboxamide]	++ (++ ≥5 and <6)
COc1ccc(-c2noc(N3CCC(C(=O)NCC4CCN(Cc5cccc(C)c5)C4)CC3)n2)cc1 (centres unmarked) [Compound 349, 1-(3-(4-methoxyphenyl)-1,2,4-oxadiazol-5-yl)-N-((1-(3-methylbenzyl)pyrrolidin-3-yl)methyl)piperidine-4-carboxamide]	++ (++ ≥5 and <6)
COc1ccc(-c2noc(N3CCC(C(=O)NCC4CCN(Cc5ncccc5C)C4)CC3)n2)cc1 (centres unmarked) [Compound 350, 1-(3-(4-methoxyphenyl)-1,2,4-oxadiazol-5-yl)-N-((1-((3-methylpyridin-2-yl)methyl)pyrrolidin-3-yl)methyl)piperidine-4-carboxamide]	++ (++ ≥5 and <6)
COc1ccc(-c2noc(N3CCC(C(=O)NCC4CCN(Cc5ccc(C)nc5)C4)CC3)n2)cc1 (centres unmarked) [Compound 351, 1-(3-(4-methoxyphenyl)-1,2,4-oxadiazol-5-yl)-N-((1-((6-methylpyridin-3-yl)methyl)pyrrolidin-3-yl)methyl)piperidine-4-carboxamide]	++ (++ ≥5 and <6)
COc1ccc(-c2noc(N3CCC(C(=O)NCC4CCN(Cc5ccns5)C4)CC3)n2)cc1 (centres unmarked) [Compound 352, N-((1-(isothiazol-5-ylmethyl)pyrrolidin-3-yl)methyl)-1-(3-(4-methoxyphenyl)-1,2,4-oxadiazol-5-yl)piperidine-4-carboxamide]	++ (++ ≥5 and <6)
COc1ccc(-c2noc(N3CCC(C(=O)NCC4CCN(CC5CCN(C)CC5)C4)CC3)n2)cc1 (centres unmarked) [Compound 353, 1-(3-(4-methoxyphenyl)-1,2,4-oxadiazol-5-yl)-N-((1-((1-methylpiperidin-4-yl)methyl)pyrrolidin-3-yl)methyl)piperidine-4-carboxamide]	++ (++ ≥5 and <6)
COc1ccc(-c2noc(N3CCC(C(=O)NCC4CCN(CC5CCSCC5)C4)CC3)n2)cc1 (centres unmarked) [Compound 354, 1-(3-(4-methoxyphenyl)-1,2,4-oxadiazol-5-yl)-N-((1-((tetrahydro-2H-thiopyran-4-yl)methyl)pyrrolidin-3-yl)methyl)piperidine-4-carboxamide]	++ (++ ≥5 and <6)
COc1ccc(-c2noc(N3CCC(C(=O)NCC4CCN(CC5CCOCC5)C4)CC3)n2)cc1 (centres unmarked) [Compound 355, 1-(3-(4-methoxyphenyl)-1,2,4-oxadiazol-5-yl)-N-((1-((tetrahydro-2H-pyran-4-yl)methyl)pyrrolidin-3-yl)methyl)piperidine-4-carboxamide]	+ (+ >3 and <5)
COc1ccc(-c2noc(N3CCC(C(=O)NCC4CCN(Cc5cccnc5)C4)CC3)n2)cc1 (centres unmarked) [Compound 356, 1-(3-(4-methoxyphenyl)-1,2,4-oxadiazol-5-yl)-N-((1-(pyridin-3-ylmethyl)pyrrolidin-3-yl)methyl)piperidine-4-carboxamide]	++ (++ ≥5 and <6)
COc1ccc(-c2noc(N3CCC(C(=O)NCC4CCN(Cc5ccsc5)C4)CC3)n2)cc1 (centres unmarked) [Compound 357, 1-(3-(4-methoxyphenyl)-1,2,4-oxadiazol-5-yl)-N-((1-(thiophen-3-ylmethyl)pyrrolidin-3-yl)methyl)piperidine-4-carboxamide]	++ (++ ≥5 and <6)
COc1ccc(-c2noc(N3CCC(C(=O)NCC4CCN(Cc5ccccc5F)C4)CC3)n2)cc1 (centres unmarked) [Compound 358, N-((1-(2-fluorobenzyl)pyrrolidin-3-yl)methyl)-1-(3-(4-methoxyphenyl)-1,2,4-oxadiazol-5-yl)piperidine-4-carboxamide]	++ (++ ≥5 and <6)
COc1ccc(-c2noc(N3CCC(C(=O)NCC4CCN(Cc5ccncc5F)C4)CC3)n2)cc1 (centres unmarked) [Compound 359, N-((1-((3-fluoropyridin-4-yl)methyl)pyrrolidin-3-yl)methyl)-1-(3-(4-methoxyphenyl)-1,2,4-oxadiazol-5-yl)piperidine-4-carboxamide]	++ (++ ≥5 and <6)
COc1ccc(-c2noc(N3CCC(C(=O)NCC4CCN(Cc5cscn5)C4)CC3)n2)cc1 (centres unmarked) [Compound 360, 1-(3-(4-methoxyphenyl)-1,2,4-oxadiazol-5-yl)-N-((1-(thiazol-4-ylmethyl)pyrrolidin-3-yl)methyl)piperidine-4-carboxamide]	+ (+ >3 and <5)
COc1ccc(-c2noc(N3CCC(C(=O)NCC4CCN(CC5CCCCO5)C4)CC3)n2)cc1 (centres unmarked) [Compound 361, 1-(3-(4-methoxyphenyl)-1,2,4-oxadiazol-5-yl)-N-((1-((tetrahydro-2H-pyran-2-yl)methyl)pyrrolidin-3-yl)methyl)piperidine-4-carboxamide]	++ (++ ≥5 and <6)
COc1ccc(-c2noc(N3CCC(C(=O)NCC4CCN(CCO)C4)CC3)n2)cc1 (centres unmarked) [Compound 362, N-((1-(2-hydroxyethyl)pyrrolidin-3-yl)methyl)-1-(3-(4-methoxyphenyl)-1,2,4-oxadiazol-5-yl)piperidine-4-carboxamide]	+ (+ >3 and <5)
COc1ccc(-c2noc(N3CCC(C(=O)NCC4CCN(Cc5cccn5C)C4)CC3)n2)cc1 (centres unmarked) [Compound 363, 1-(3-(4-methoxyphenyl)-1,2,4-oxadiazol-5-yl)-N-((1-((1-methyl-1H-pyrrol-2-yl)methyl)pyrrolidin-3-yl)methyl)piperidine-4-carboxamide]	+ (+ >3 and <5)
COc1ccc(-c2noc(N3CCC(C(=O)NCC4CCN(Cc5nccs5)C4)CC3)n2)cc1 (centres unmarked) [Compound 364, 1-(3-(4-methoxyphenyl)-1,2,4-oxadiazol-5-yl)-N-((1-(thiazol-2-ylmethyl)pyrrolidin-3-yl)methyl)piperidine-4-carboxamide]	+ (+ >3 and <5)
COc1ccc(-c2noc(N3CCC(C(=O)NCC4CCN(Cc5cncc(C)c5)C4)CC3)n2)cc1 (centres unmarked) [Compound 365, 1-(3-(4-methoxyphenyl)-1,2,4-oxadiazol-5-yl)-N-((1-((5-methylpyridin-3-yl)methyl)pyrrolidin-3-yl)methyl)piperidine-4-carboxamide]	++ (++ ≥5 and <6)
COc1ccc(-c2noc(N3CCC(C(=O)NCC4CCN(CCF)C4)CC3)n2)cc1 (centres unmarked) [Compound 366, N-((1-(2-fluoroethyl)pyrrolidin-3-yl)methyl)-1-(3-(4-methoxyphenyl)-1,2,4-oxadiazol-5-yl)piperidine-4-carboxamide]	+ (+ >3 and <5)
COc1ccc(-c2noc(N3CCC(C(=O)NCC4CCN(CC(F)F)C4)CC3)n2)cc1 (centres unmarked) [Compound 367, N-((1-(2,2-difluoroethyl)pyrrolidin-3-yl)methyl)-1-(3-(4-methoxyphenyl)-1,2,4-oxadiazol-5-yl)piperidine-4-carboxamide]	+ (+ >3 and <5)
COc1ccc(-c2noc(N3CCC(C(=O)NCC4CCN(CC5CC5C)C4)CC3)n2)cc1 (centres unmarked) [Compound 368, 1-(3-(4-methoxyphenyl)-1,2,4-oxadiazol-5-yl)-N-((1-((2-methylcyclopropyl)methyl)pyrrolidin-3-yl)methyl)piperidine-4-carboxamide]	++ (++ ≥5 and <6)
COc1ccc(-c2noc(N3CCC(C(=O)NCC4CCN(C[C@@H]5CCCN5C)C4)CC3)n2)cc1 (stereo partly drawn) [Compound 369, 1-(3-(4-methoxyphenyl)-1,2,4-oxadiazol-5-yl)-N-((1-(((S)-1-methylpyrrolidin-2-yl)methyl)pyrrolidin-3-yl)methyl)piperidine-4-carboxamide]	+ (+ >3 and <5)
